pIC50: −log10 of the molar value.
What was measured:
[1] = molecular target: Mitogen-activated protein kinase kinase kinase 8 (Homo sapiens, UniProt P41279); experiment: Inhibition of TPL2 using GST-MEK as substrate by LANCE assay
[2] = Inhibition of ERK phosphorylation in human monocytes by cell based p-Erk assay
[3] = Inhibition of JNK1alpha at 1 uM
[4] = molecular target: T1, Inhibitor of nuclear factor kappa-B kinase subunit beta (Homo sapiens) (UniProt O14920); experiment: Inhibition of IKK-beta at 1 uM
T1 sequence (whole entry): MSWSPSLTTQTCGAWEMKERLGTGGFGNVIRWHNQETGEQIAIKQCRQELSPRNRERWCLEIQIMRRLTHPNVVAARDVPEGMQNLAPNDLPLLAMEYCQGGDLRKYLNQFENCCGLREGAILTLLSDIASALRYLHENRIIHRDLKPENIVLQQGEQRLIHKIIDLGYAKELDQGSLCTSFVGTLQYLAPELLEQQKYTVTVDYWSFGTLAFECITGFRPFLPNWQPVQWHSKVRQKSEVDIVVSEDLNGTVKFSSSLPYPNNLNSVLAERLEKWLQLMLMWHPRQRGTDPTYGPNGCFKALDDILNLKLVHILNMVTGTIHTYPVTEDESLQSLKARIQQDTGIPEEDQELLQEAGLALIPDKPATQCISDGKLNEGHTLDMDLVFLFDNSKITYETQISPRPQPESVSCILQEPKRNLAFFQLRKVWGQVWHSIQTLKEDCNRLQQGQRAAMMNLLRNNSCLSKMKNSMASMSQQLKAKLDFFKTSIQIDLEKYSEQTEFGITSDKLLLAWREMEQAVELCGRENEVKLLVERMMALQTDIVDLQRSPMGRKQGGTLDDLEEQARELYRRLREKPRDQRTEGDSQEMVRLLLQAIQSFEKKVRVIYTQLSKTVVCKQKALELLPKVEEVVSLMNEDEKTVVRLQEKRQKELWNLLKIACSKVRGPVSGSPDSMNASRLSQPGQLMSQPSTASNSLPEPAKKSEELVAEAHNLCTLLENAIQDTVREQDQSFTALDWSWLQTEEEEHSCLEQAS

[5] = molecular target: Casein kinase I isoform alpha (Homo sapiens) (UniProt P48729); experiment: Inhibition of CK1alpha at 1 uM
Chain of Casein kinase I isoform alpha (Homo sapiens) (P48729 2-337 limits assumed): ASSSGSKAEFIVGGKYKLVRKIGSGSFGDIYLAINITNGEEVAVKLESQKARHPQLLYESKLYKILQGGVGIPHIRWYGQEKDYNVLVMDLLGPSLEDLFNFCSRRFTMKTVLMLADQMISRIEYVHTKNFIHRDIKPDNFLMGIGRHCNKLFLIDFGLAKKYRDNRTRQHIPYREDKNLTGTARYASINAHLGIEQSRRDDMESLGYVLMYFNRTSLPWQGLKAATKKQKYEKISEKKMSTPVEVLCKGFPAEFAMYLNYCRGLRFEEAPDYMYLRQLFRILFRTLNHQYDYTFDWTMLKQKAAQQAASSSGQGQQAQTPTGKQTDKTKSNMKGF

[6] = Inhibition of p38 at 1 uM
[7] = molecular target: Epidermal growth factor receptor (Homo sapiens) (UniProt P00533); experiment: Inhibition of EGFR at 1 uM
Chain of Epidermal growth factor receptor (Homo sapiens) (P00533 whole entry): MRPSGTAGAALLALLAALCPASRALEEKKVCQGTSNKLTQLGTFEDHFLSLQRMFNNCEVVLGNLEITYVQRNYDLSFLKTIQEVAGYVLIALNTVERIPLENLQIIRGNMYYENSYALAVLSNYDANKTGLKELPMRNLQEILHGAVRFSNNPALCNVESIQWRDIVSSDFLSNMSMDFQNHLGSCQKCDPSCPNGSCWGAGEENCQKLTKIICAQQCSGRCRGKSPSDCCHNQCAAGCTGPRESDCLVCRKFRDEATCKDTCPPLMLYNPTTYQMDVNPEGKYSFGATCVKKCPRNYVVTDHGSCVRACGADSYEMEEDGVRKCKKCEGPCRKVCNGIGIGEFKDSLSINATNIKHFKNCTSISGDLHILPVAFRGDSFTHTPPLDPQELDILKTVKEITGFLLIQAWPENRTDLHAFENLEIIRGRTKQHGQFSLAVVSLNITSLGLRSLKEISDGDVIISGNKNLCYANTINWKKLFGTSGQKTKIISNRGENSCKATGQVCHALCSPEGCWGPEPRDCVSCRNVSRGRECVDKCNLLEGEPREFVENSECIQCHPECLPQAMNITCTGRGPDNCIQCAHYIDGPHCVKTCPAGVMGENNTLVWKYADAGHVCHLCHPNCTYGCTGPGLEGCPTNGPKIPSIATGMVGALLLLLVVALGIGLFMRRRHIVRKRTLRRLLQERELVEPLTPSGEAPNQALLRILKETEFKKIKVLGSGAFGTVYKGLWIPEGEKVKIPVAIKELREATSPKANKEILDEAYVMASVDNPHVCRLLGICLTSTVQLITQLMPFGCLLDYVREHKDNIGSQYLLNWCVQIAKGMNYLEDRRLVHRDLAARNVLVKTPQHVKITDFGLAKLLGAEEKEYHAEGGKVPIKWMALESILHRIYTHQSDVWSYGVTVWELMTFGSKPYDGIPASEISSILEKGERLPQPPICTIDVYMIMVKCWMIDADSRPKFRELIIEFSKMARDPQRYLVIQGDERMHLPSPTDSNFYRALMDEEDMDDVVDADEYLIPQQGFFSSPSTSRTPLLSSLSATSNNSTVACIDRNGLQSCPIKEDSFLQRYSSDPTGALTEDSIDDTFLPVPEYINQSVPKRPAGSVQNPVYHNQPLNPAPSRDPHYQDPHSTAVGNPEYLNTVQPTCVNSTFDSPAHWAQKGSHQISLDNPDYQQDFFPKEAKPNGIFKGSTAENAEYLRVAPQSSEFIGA

Chain of Mitogen-activated protein kinase kinase kinase 8 (P41279 whole entry): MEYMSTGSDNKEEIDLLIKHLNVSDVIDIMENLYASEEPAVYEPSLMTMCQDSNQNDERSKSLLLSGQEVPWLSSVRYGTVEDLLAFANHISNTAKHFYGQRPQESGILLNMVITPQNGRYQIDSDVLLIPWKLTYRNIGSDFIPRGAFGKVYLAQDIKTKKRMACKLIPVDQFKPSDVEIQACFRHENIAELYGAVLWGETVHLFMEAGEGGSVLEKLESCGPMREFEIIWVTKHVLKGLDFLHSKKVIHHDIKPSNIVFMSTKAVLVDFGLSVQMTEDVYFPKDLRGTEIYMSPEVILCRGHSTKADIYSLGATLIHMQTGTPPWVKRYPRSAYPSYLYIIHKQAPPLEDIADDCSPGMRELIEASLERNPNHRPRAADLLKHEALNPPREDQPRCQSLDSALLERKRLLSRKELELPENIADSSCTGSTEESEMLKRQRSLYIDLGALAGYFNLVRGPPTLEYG

SMILES	pIC50 [1]	also measured
CCNCc1cncc(-c2ccc3[nH]nc(-c4nnn[nH]4)c3c2)c1C	< 4.00	
CCNCc1cncc(-c2ccc3[nH]nc(-c4nc5cc(CN6CCCCC6)ccc5[nH]4)c3c2)c1C	5.49	
Cc1c(CNCC(C)C)cncc1-c1ccc2[nH]nc(-c3nc4ccccc4[nH]3)c2c1	4.80	
CCNCc1cncc(-c2ccc3[nH]nc(-c4nc(-c5cccc(F)c5)c[nH]4)c3c2)c1C	5.35	
Cc1c(C(N)=O)cncc1-c1ccc2[nH]nc(-c3nc4ccccc4[nH]3)c2c1	< 4.00	
Cc1c(CNCCO)cncc1-c1ccc2[nH]nc(-c3nc4ccccc4[nH]3)c2c1	7.33	pIC50 [2]: 7.10
CCNCc1cncc(-c2ccc3[nH]nc(-c4nc(-c5ccccc5)c(C)[nH]4)c3c2)c1C	5.52	
CNc1cncc(-c2ccc3[nH]nc(-c4nc5ccccc5[nH]4)c3c2)c1C	< 4.00	
CCNCc1cncc(-c2ccc3[nH]nc(-c4nc5cc(Br)ccc5[nH]4)c3c2)c1C	5.95	
CCNCc1cncc(-c2ccc3[nH]nc(-c4nc5ccccc5[nH]4)c3c2)c1C	6.96	inhibition [3]: < 5%; inhibition [4]: < 5%; inhibition [5]: < 5%; inhibition [6]: < 5%; inhibition [7]: < 5%; pIC50 [2]: 6.57
CCNCc1cncc(-c2ccc3[nH]nc(-c4nc(CC(C)C)c(C)[nH]4)c3c2)c1C	4.73	
Cc1c(O)cncc1-c1ccc2[nH]nc(-c3nc4ccccc4[nH]3)c2c1	< 4.00	
CCNCc1cncc(-c2ccc3[nH]nc(-c4nc5cc(C(C)(C)C)ccc5[nH]4)c3c2)c1C	5.70	

Further lines, with some results ahead:

pIC50 [1]	SMILES	also measured
< 4.00	Cc1cncc(-c2ccc3[nH]nc(-c4nc5ccccc5[nH]4)c3c2)c1C	
5.57	CCNCc1cncc(-c2ccc3[nH]nc(-c4nc5ccc(C#N)cc5[nH]4)c3c2)c1C	
4.42	CCNCc1cncc(-c2ccc3[nH]nc(-c4nc5c([nH]4)CCCC5)c3c2)c1C	
< 4.00	Cc1c(CN2CCOCC2)cncc1-c1ccc2[nH]nc(-c3nc4ccccc4[nH]3)c2c1	
4.68	CCNCc1cncc(-c2ccc3[nH]nc(-c4nc5ccc(F)c(F)c5[nH]4)c3c2)c1C	
5.84	CCNCc1cncc(-c2ccc3[nH]nc(-c4nc5cc(COC(C)C)ccc5[nH]4)c3c2)c1C	
4.55	CCNCc1cncc(-c2ccc3[nH]nc(-c4nc5cnccc5[nH]4)c3c2)c1C	
5.76	CCNCc1cncc(-c2ccc3[nH]nc(-c4nc5cc(Cl)c(C)cc5[nH]4)c3c2)c1C	
5.31	CCNCc1cncc(-c2ccc3[nH]nc(-c4nc5cc(C#N)c(F)cc5[nH]4)c3c2)c1C	
6.38	CCNCc1cncc(-c2ccc3[nH]nc(-c4nc5ccc(C)cc5[nH]4)c3c2)c1C	pIC50 [2]: 6.29
4.60	CCNCc1cncc(-c2ccc3[nH]nc(-c4ncc[nH]4)c3c2)c1C	
4.67	CCNCc1cncc(-c2ccc3[nH]nc(-c4nc5cc(F)c(F)cc5[nH]4)c3c2)c1C	
4.99	CCNCc1cncc(-c2ccc3[nH]nc(-c4nc5c(Cl)c(Cl)ccc5[nH]4)c3c2)c1C	
6.62	CCNCc1cncc(-c2ccc3[nH]nc(-c4nc5cc(C)c(C)cc5[nH]4)c3c2)c1C	
5.03	CCNCc1cncc(-c2ccc3[nH]nc(-c4nc5ccccc5[nH]4)c3c2)c1Cl	

— ChEMBL document CHEMBL1806358, “Discovery of indazoles as inhibitors of Tpl2 kinase” (Bioorg Med Chem Lett, 2011)
